Patent US11919901B2 (Syndax Pharmaceuticals, Inc., priority 2021, dated 2024)

Biological target: Menin-MLL (Homo sapiens (Human), UniProt O00255)
Experiment: Determination of binding constants (Ki) to Menin-MLL (HTRF)
Conditions: HTRF, 0.25 nM H-FL-Menin, 3.2 nM FITC-MLL-4-43, 24 hr incubation; for Ki: read-out: Menin-MLL Ki HTRF Assay: Ki

Menin-MLL, sequence (O00255 whole entry): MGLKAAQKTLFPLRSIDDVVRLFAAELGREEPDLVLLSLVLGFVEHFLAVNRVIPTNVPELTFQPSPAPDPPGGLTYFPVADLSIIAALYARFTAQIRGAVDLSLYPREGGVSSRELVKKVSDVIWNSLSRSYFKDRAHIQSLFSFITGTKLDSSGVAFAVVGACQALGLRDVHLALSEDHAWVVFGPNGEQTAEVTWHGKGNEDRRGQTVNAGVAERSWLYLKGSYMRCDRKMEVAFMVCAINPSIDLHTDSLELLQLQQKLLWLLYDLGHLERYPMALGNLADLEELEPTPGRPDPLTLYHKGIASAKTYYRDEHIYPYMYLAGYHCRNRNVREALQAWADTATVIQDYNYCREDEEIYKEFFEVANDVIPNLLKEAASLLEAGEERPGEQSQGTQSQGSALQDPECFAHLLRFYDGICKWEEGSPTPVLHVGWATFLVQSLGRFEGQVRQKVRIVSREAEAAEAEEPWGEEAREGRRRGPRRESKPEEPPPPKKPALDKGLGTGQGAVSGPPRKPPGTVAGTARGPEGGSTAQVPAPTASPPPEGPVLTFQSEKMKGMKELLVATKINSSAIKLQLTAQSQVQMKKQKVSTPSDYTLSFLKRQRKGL

Compound	EC50	Ki
C[C@@H]1COC[C@@H](C)N1C(=O)c1cc(F)ccc1Oc1cncnc1N1CC2(CCN(C[C@@H]3CC[C@@H](NS(C)(=O)=O)CO3)CC2)C1 [Compound 28, N-((3R,6S)-6-((2-(5-(2-((3R,5R)-3,5-dimethylmorpholine-4-carbonyl)-4-fluorophenoxy)pyrimidin-4-yl)-2,7-diazaspiro[3.5]nonan-7-yl)methyl)tetrahydro-2H-pyran-3-yl)methanesulfonamide]	< 50 nM	< 1 nM
CCS(=O)(=O)N[C@@H]1CC[C@@H](CN2CCC3(CC2)CN(c2ncncc2Oc2ccc(F)cc2C(=O)N2[C@H](C)COC[C@H]2C)C3)OC1 [Compound 29]	< 50 nM	< 1 nM
CC(C)S(=O)(=O)N[C@@H]1CC[C@@H](CN2CCC3(CC2)CN(c2ncncc2Oc2ccc(F)cc2C(=O)N2[C@H](C)COC[C@H]2C)C3)OC1 [Compound 30]	< 50 nM	< 1 nM
C[C@@H]1COC[C@@H](C)N1C(=O)c1cc(F)ccc1Oc1cncnc1N1CC2(CCN(C[C@@H]3CC[C@@H](NS(=O)(=O)C4CC4)CO3)CC2)C1 [Compound 31, N-((3R,6S)-6-((2-(5-(2-((3R,5R)-3,5-dimethylmorpholine-4-carbonyl)-4-fluorophenoxy)pyrimidin-4-yl)-2,7-diazaspiro[3.5]nonan-7-yl)methyl)tetrahydro-2H-pyran-3-yl)cyclopropanesulfonamide]	< 50 nM	< 1 nM
C[C@@H]1COC[C@@H](C)N1C(=O)c1cc(F)ccc1Oc1cncnc1N1CC2(CCN(C[C@@H]3CC[C@@H](NS(=O)(=O)C4COC4)CO3)CC2)C1 [Compound 32]	< 50 nM	< 1 nM
CCS(=O)(=O)N[C@@H]1CC[C@@H](CN2CCC3(CC2)CN(c2ncncc2Oc2ccc(F)cc2C(=O)N(CCOC)C(C)C)C3)OC1 [Compound 35, 2-((4-(7-(((2S,5R)-5-(ethylsulfonamido)tetrahydro-2H-pyran-2-yl)methyl)-2,7-diazaspiro[3.5]nonan-2-yl)pyrimidin-5-yl)oxy)-5-fluoro-N-isopropyl-N-(2-methoxyethyl)benzamide]	< 50 nM	< 1 nM
CCS(=O)(=O)N[C@@H]1CC[C@@H](CN2CCC3(CC2)CN(c2ncncc2Oc2ccc(F)cc2C(=O)N2[C@H](C)CCC[C@@H]2C)C3)OC1 [Compound 36, N-((3R,6S)-6-((2-(5-(2-((2S,6R)-2,6-dimethylpiperidine-1-carbonyl)-4-fluorophenoxy)pyrimidin-4-yl)-2,7-diazaspiro[3.5]nonan-7-yl)methyl)tetrahydro-2H-pyran-3-yl)ethanesulfonamide]	< 50 nM	< 1 nM
CCCNC(=O)N[C@@H]1CC[C@@H](CN2CCC3(CC2)CN(c2ncncc2Oc2ccc(F)cc2C(=O)N(CC)C(C)C)C3)OC1 [Compound 38, N-ethyl-5-fluoro-N-isopropyl-2-((4-(7-(((2S,5R)-5-(3-propylureido)tetrahydro-2H-pyran-2-yl)methyl)-2,7-diazaspiro[3.5]nonan-2-yl)pyrimidin-5-yl)oxy)benzamide]	50 to 100 nM	1 to 1.5 nM
CCNC(=O)N[C@@H]1CC[C@@H](CN2CCC3(CC2)CN(c2ncncc2Oc2ccc(F)cc2C(=O)N(CC)C(C)C)C3)OC1 [Compound 39, N-ethyl-2-((4-(7-(((2S,5R)-5-(3-ethylureido)tetrahydro-2H-pyran-2-yl)methyl)-2,7-diazaspiro[3.5]nonan-2-yl)pyrimidin-5-yl)oxy)-5-fluoro-N-isopropylbenzamide]	< 50 nM	< 1 nM
CCN(C(=O)c1cc(F)ccc1Oc1cncnc1N1CC2(CCN(C[C@@H]3CC[C@@H](NC(=O)NCC(F)F)CO3)CC2)C1)C(C)C [Compound 41, 2-((4-(7-(((2S,5R)-5-(3-(2,2-difluoroethyl)ureido)tetrahydro-2H-pyran-2-yl)methyl)-2,7-diazaspiro[3.5]nonan-2-yl)pyrimidin-5-yl)oxy)-N-ethyl-5-fluoro-N-isopropylbenzamide]	50 to 100 nM	< 1 nM
CCN(C(=O)c1cc(F)ccc1Oc1cncnc1N1CC2(CCN(C[C@@H]3CC[C@@H](NC(=O)NCC4CC4)CO3)CC2)C1)C(C)C [Compound 42, 2-((4-(7-(((2S,5R)-5-(3-(cyclopropylmethyl)ureido)tetrahydro-2H-pyran-2-yl)methyl)-2,7-diazaspiro[3.5]nonan-2-yl)pyrimidin-5-yl)oxy)-N-ethyl-5-fluoro-N-isopropylbenzamide]	> 100 nM	1 to 1.5 nM
CCS(=O)(=O)N[C@@H]1CC[C@@H](CN2CCC3(CC2)CN(c2ncncc2Oc2ccc(F)cc2C(=O)N(C(C)C)[C@@H]2CCOC2)C3)OC1 [Compound 46, 2-((4-(7-(((2S,5R)-5-(ethylsulfonamido)tetrahydro-2H-pyran-2-yl)methyl)-2,7-diazaspiro[3.5]nonan-2-yl)pyrimidin-5-yl)oxy)-5-fluoro-N-isopropyl-N-((R)-tetrahydrofuran-3-yl)benzamide]	< 50 nM	< 1 nM
CCS(=O)(=O)N[C@@H]1CC[C@@H](CN2CCC3(CC2)CN(c2ncncc2Oc2ccc(F)cc2C(=O)N(C(C)C)C2COC2)C3)OC1 [Compound 48, 2-((4-(7-(((2S,5R)-5-(ethylsulfonamido)tetrahydro-2H-pyran-2-yl)methyl)-2,7-diazaspiro[3.5]nonan-2-yl)pyrimidin-5-yl)oxy)-5-fluoro-N-isopropyl-N-(oxetan-3-yl)benzamide]	< 50 nM	< 1 nM
CCS(=O)(=O)N[C@@H]1CC[C@@H](CN2CCC3(CC2)CN(c2ncncc2Oc2ccc(F)cc2C(=O)N(C(C)C)[C@H]2C[C@@H](O)C2)C3)OC1 [Compound 50, 2-((4-(7-(((2S,5R)-5-(ethylsulfonamido)tetrahydro-2H-pyran-2-yl)methyl)-2,7-diazaspiro[3.5]nonan-2-yl)pyrimidin-5-yl)oxy)-5-fluoro-N-((1s,3s)-3-hydroxycyclobutyl)-N-isopropylbenzamide]	< 50 nM	< 1 nM
COCCN(C(=O)c1cc(F)ccc1Oc1cncnc1N1CC2(CCN(C[C@@H]3CC[C@@H](NS(=O)(=O)C4CC4)CO3)CC2)C1)C(C)C [Compound 51, 2-((4-(7-(((2S,5R)-5-(cyclopropanesulfonamido)tetrahydro-2H-pyran-2-yl)methyl)-2,7-diazaspiro[3.5]nonan-2-yl)pyrimidin-5-yl)oxy)-5-fluoro-N-isopropyl-N-(2-methoxyethyl)benzamide]	< 50 nM	–
CC(C)N(C)C(=O)c1cc(F)ccc1Oc1cncnc1N1CC2(CCN(C[C@@H]3CC[C@@H](NS(=O)(=O)c4ccn(C)n4)CO3)CC2)C1 [Compound 53, Fluoro-N-isopropyl-N-methyl-2-((4-(7-(((2S,5R)-5-((1-methyl-1H-pyrazole)-3-sulfonamido)tetrahydro-2H-pyran-2-yl)methyl)-2,7-diazaspiro[3.5]nonan-2-yl)pyrimidin-5-yl)oxy)benzamide]	–	< 1 nM
Cc1nc(S(=O)(=O)N[C@@H]2CC[C@@H](CN3CCC4(CC3)CN(c3ncncc3Oc3ccc(F)cc3C(=O)N(C)C(C)C)C4)OC2)cs1 [Compound 54, 5-Fluoro-N-isopropyl-N-methyl-2-((4-(7-(((2S,5R)-5-((2-methylthiazole)-4-sulfonamido)tetrahydro-2H-pyran-2-yl)methyl)-2,7-diazaspiro[3.5]nonan-2-yl)pyrimidin-5-yl)oxy)benzamide]	–	< 1 nM
CCN(C(=O)c1cc(F)ccc1Oc1cncnc1N1CC2(CCN(C[C@@H]3CC[C@@H](NS(=O)(=O)c4ccc(C)cc4)CO3)CC2)C1)C(C)C [Compound 55, N-Ethyl-5-fluoro-N-isopropyl-2-((4-(7-(((2S,5R)-5-((4-methylphenyl)sulfonamido)tetrahydro-2H-pyran-2-yl)methyl)-2,7-diazaspiro[3.5]nonan-2-yl)pyrimidin-5-yl)oxy)benzamide]	< 50 nM	< 1 nM
CCN(C(=O)c1cc(F)ccc1Oc1cncnc1N1CC2(CCN(C[C@@H]3CC[C@@H](NS(=O)(=O)c4ccccc4C)CO3)CC2)C1)C(C)C [Compound 56, N-Ethyl-5-fluoro-N-isopropyl-2-((4-(7-(((2S,5R)-5-((2-methylphenyl)sulfonamido)tetrahydro-2H-pyran-2-yl)methyl)-2,7-diazaspiro[3.5]nonan-2-yl)pyrimidin-5-yl)oxy)benzamide]	< 50 nM	< 1 nM
CCN(C(=O)c1cc(F)ccc1Oc1cncnc1N1CC2(CCN(C[C@@H]3CC[C@@H](NS(=O)(=O)c4cccc(Cl)c4)CO3)CC2)C1)C(C)C [Compound 57, 2-((4-(7-(((2S,5R)-5-((3-Chlorophenyl)sulfonamido)tetrahydro-2H-pyran-2-yl)methyl)-2,7-diazaspiro[3.5]nonan-2-yl)pyrimidin-5-yl)oxy)-N-ethyl-5-fluoro-N-isopropylbenzamide]	< 50 nM	< 1 nM
CCN(C(=O)c1cc(F)ccc1Oc1cncnc1N1CC2(CCN(C[C@@H]3CC[C@@H](NS(=O)(=O)c4cccc(C)c4)CO3)CC2)C1)C(C)C [Compound 60, N-ethyl-5-fluoro-N-isopropyl-2-((4-(7-(((2S,5R)-5-((3-methylphenyl)sulfonamido)tetrahydro-2H-pyran-2-yl)methyl)-2,7-diazaspiro[3.5]nonan-2-yl)pyrimidin-5-yl)oxy)benzamide]	< 50 nM	< 1 nM
CCN(C(=O)c1cc(F)ccc1Oc1cncnc1N1CC2(CCN(C[C@@H]3CC[C@@H](NS(=O)(=O)c4ccc(Cl)cc4)CO3)CC2)C1)C(C)C [Compound 61, 2-((4-(7-(((2S,5R)-5-((4-Chlorophenyl)sulfonamido)tetrahydro-2H-pyran-2-yl)methyl)-2,7-diazaspiro[3.5]nonan-2-yl)pyrimidin-5-yl)oxy)-N-ethyl-5-fluoro-N-isopropylbenzamide]	< 50 nM	< 1 nM
CCN(C(=O)c1cc(F)ccc1Oc1cncnc1N1CC2(CCN(C[C@@H]3CC[C@@H](NS(=O)(=O)C4CCOCC4)CO3)CC2)C1)C(C)C [Compound 67, N-Ethyl-5-fluoro-N-isopropyl-2-((4-(7-(((2S,5R)-5-((tetrahydro-2H-pyran)-4-sulfonamido)tetrahydro-2H-pyran-2-yl)methyl)-2,7-diazaspiro[3.5]nonan-2-yl)pyrimidin-5-yl)oxy)benzamide]	< 50 nM	< 1 nM
